Data on 24 molecules can be found in ChEMBL document CHEMBL5291721, “A preclinical secondary pharmacology resource illuminates target-adverse drug reaction associations of marketed drugs” (Nat Commun, 2023).

Some targets named below: Histamine H3 receptor (Homo sapiens, UniProt Q9Y5N1); Adenosine receptor A2a (Homo sapiens, UniProt P29274); Mu-type opioid receptor (Homo sapiens, UniProt P35372).
Experiment [1] deals with Vascular endothelial growth factor receptor 2 (Homo sapiens, UniProt P35968). Format: functional.
Chain of Vascular endothelial growth factor receptor 2 (P35968 whole entry): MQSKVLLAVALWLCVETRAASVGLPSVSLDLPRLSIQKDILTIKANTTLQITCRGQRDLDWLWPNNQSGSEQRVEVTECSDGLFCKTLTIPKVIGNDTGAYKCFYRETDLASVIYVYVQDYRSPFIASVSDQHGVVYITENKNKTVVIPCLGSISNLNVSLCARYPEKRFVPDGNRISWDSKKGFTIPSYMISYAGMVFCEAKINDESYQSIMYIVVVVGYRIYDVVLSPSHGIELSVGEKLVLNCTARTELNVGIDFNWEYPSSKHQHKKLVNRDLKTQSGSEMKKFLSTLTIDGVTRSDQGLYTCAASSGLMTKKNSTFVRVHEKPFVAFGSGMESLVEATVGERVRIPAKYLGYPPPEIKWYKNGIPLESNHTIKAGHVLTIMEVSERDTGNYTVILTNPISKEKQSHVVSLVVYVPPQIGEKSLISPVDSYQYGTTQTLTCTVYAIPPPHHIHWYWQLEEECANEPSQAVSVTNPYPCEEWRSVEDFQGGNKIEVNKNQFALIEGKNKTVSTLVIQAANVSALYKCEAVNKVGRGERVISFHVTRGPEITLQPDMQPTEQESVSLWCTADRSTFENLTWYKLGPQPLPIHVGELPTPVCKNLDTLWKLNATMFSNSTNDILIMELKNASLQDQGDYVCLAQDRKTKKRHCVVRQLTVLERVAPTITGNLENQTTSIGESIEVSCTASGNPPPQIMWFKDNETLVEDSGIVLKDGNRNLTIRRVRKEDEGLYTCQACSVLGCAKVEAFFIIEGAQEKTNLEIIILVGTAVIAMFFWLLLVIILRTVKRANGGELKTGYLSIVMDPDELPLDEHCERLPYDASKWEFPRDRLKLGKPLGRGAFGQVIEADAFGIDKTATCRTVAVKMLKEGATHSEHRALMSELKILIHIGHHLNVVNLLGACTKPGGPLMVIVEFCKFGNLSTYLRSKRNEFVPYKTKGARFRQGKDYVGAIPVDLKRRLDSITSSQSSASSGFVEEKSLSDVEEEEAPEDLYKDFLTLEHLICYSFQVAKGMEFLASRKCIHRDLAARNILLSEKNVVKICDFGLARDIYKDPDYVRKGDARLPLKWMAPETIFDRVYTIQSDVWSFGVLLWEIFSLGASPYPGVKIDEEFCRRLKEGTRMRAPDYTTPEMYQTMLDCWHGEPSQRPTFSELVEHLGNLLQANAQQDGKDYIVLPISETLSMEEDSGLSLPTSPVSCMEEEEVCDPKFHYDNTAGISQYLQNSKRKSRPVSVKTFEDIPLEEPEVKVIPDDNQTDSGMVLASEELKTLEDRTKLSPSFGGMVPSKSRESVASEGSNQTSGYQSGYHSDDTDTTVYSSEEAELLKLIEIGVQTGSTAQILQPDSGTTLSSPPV
Experiment [2] addresses Gamma-aminobutyric acid receptor subunit alpha-1 (Rattus norvegicus, UniProt P62813).
The target in experiment [3] is T1, Alpha-1A adrenergic receptor (Homo sapiens, UniProt P35348).
T1 sequence (P35348 whole entry): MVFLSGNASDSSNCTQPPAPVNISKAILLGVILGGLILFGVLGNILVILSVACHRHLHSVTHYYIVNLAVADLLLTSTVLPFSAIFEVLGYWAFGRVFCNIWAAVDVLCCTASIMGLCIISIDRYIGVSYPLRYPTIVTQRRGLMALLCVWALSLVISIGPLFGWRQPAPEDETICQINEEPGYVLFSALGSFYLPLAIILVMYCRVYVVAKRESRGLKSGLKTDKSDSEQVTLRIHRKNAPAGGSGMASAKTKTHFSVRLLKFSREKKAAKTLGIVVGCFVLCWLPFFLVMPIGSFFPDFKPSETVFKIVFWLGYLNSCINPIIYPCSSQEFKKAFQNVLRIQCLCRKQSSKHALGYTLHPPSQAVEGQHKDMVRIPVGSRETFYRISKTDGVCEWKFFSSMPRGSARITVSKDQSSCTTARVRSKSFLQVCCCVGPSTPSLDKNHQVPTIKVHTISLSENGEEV
The experiment is classed as functional, cell-based.

Experiment [4] deals with T2, Beta-2 adrenergic receptor (Homo sapiens, UniProt P07550). The experiment is classed as functional, cell-based.
T2 sequence (P07550 whole entry): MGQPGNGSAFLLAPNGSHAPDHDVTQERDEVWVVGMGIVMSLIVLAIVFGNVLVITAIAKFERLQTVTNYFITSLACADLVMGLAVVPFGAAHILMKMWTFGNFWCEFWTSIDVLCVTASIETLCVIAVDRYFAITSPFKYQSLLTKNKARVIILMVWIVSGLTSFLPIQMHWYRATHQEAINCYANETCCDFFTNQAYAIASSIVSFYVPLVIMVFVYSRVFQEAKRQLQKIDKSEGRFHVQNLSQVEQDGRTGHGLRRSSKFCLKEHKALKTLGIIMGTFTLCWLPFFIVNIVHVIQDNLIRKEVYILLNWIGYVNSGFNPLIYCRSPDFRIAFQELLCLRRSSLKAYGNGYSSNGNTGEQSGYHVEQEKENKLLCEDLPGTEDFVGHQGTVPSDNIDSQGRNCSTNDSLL
In a further experiment the target is Cannabinoid receptor 1 (Homo sapiens, UniProt P21554). Format: functional, cell-based.
Chain of Cannabinoid receptor 1 (P21554 whole entry): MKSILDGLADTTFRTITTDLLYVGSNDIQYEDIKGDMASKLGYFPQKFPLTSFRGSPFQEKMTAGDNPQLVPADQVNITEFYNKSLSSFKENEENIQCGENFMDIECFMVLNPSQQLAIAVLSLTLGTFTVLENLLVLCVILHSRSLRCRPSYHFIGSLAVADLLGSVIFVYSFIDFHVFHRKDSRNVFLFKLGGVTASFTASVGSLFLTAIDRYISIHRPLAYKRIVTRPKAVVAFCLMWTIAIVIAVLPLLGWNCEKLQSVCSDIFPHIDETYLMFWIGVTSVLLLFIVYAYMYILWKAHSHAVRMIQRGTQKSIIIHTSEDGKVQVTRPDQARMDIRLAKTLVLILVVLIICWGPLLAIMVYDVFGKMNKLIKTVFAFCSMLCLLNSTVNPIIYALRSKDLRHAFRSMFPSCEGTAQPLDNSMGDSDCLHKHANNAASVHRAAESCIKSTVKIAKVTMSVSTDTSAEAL
The target of experiment [5] is 3',5'-cyclic-AMP phosphodiesterase 4D (Homo sapiens, UniProt Q08499). Format: functional.
Experiment [6] addresses T3, Amine oxidase [flavin-containing] A (Homo sapiens, UniProt P21397).
T3 sequence (P21397 whole entry): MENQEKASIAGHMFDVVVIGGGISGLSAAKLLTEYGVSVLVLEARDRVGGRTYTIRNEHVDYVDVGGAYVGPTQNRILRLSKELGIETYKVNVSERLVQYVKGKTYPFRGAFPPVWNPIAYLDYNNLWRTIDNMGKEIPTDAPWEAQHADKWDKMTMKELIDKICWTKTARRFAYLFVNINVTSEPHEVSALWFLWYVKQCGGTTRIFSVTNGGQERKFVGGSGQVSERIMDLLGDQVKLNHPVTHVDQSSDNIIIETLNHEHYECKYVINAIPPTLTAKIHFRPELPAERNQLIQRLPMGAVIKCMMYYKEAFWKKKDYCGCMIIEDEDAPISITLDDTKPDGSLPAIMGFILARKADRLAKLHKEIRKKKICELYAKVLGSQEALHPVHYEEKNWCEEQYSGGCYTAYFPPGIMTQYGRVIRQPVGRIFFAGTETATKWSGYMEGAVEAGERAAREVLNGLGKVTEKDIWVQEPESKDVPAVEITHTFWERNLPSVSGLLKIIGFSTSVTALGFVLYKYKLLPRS
The experiment is classed as functional.

Experiment [7] concerns the target cGMP-inhibited 3',5'-cyclic phosphodiesterase 3A (Homo sapiens, UniProt Q14432). The experiment is classed as functional.
Experiment [8] addresses Sodium-dependent noradrenaline transporter (Homo sapiens, UniProt P23975).
For experiment [9], the target named is Sodium-dependent dopamine transporter (Homo sapiens, UniProt Q01959).
The next experiment addresses T4, Progesterone receptor (Homo sapiens, UniProt P06401).
T4 sequence (P06401 whole entry): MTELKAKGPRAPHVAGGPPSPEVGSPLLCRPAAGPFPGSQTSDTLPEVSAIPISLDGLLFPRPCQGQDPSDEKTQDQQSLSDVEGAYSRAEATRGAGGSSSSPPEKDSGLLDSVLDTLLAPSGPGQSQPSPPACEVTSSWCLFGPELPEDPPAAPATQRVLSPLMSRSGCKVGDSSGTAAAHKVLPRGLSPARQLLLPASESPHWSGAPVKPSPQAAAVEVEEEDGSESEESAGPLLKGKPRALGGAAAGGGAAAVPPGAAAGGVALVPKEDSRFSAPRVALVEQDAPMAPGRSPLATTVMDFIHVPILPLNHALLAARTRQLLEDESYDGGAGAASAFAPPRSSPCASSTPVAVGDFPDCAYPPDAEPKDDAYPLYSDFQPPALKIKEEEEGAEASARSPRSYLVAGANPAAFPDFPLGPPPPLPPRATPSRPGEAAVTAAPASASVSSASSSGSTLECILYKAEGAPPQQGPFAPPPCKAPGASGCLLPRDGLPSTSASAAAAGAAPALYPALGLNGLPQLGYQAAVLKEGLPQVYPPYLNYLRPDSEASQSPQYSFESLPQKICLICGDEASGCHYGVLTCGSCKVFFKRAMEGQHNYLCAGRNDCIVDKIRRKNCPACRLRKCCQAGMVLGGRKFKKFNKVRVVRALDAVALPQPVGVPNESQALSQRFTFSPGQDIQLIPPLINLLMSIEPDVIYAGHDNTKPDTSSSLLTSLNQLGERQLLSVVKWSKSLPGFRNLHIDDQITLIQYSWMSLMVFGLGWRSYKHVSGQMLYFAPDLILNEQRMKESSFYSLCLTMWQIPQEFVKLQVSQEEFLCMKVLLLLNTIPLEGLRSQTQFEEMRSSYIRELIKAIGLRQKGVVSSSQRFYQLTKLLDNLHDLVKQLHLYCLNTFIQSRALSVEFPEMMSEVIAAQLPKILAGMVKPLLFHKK
Format: functional.

The target of experiment [10] is T2, Beta-2 adrenergic receptor.
Note: assay procedure not described here.

Chain of cGMP-inhibited 3',5'-cyclic phosphodiesterase 3A (Q14432 whole entry): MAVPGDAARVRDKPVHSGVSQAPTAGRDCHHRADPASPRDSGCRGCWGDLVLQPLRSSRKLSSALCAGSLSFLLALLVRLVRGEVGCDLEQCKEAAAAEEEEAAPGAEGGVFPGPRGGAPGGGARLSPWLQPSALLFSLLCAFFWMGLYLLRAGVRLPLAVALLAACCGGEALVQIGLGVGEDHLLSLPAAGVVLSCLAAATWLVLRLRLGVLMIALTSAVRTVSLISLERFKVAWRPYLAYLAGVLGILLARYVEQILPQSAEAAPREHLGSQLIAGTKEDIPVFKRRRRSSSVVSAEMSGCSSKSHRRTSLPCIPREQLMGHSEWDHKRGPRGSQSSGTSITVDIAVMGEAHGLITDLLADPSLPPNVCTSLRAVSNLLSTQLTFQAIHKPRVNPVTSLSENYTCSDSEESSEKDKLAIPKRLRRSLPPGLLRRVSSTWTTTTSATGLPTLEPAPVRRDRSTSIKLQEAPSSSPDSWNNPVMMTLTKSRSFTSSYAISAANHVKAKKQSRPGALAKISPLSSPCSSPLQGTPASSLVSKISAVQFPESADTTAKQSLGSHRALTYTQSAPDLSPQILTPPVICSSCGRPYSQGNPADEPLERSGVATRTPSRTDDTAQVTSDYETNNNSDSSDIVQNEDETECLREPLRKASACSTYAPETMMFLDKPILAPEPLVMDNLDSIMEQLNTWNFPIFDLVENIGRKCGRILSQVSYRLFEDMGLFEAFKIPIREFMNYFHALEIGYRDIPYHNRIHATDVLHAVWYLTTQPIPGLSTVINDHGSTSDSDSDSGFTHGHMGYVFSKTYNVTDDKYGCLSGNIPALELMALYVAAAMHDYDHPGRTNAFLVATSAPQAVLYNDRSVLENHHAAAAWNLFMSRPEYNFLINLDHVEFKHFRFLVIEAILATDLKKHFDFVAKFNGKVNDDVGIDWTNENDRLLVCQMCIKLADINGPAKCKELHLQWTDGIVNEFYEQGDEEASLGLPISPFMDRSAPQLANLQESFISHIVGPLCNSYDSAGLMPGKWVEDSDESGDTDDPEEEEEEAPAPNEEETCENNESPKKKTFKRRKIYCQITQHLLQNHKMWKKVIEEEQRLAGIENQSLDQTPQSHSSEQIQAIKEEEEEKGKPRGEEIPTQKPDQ
Chain of Sodium-dependent noradrenaline transporter (P23975 whole entry): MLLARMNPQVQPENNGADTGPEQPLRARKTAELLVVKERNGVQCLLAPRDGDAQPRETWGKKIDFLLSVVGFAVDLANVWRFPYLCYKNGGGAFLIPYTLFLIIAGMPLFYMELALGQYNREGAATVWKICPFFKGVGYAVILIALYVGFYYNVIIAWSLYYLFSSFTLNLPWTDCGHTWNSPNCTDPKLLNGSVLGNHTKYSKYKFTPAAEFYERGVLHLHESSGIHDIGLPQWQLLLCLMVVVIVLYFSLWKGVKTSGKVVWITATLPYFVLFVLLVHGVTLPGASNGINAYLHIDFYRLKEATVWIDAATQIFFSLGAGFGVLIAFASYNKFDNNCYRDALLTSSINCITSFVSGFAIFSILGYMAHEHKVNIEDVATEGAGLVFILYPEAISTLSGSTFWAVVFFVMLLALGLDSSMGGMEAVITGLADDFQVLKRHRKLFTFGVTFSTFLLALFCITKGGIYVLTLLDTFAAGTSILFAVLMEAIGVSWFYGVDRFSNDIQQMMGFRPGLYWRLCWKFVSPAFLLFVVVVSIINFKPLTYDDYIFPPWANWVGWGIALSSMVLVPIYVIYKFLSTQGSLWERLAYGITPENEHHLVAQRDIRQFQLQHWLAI
Chain of Adenosine receptor A2a (P29274 whole entry): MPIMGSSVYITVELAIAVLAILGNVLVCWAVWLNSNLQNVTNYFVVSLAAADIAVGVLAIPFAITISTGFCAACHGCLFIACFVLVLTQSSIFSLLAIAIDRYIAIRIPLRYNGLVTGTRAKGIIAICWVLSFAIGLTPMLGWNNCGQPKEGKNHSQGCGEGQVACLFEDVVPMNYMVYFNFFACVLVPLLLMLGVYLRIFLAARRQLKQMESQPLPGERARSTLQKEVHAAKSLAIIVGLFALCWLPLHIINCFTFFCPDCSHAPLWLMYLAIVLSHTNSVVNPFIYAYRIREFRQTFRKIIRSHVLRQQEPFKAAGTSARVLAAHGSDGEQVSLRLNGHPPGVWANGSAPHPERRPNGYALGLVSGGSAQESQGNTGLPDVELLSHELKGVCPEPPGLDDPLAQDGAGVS
Chain of Gamma-aminobutyric acid receptor subunit alpha-1 (P62813 whole entry): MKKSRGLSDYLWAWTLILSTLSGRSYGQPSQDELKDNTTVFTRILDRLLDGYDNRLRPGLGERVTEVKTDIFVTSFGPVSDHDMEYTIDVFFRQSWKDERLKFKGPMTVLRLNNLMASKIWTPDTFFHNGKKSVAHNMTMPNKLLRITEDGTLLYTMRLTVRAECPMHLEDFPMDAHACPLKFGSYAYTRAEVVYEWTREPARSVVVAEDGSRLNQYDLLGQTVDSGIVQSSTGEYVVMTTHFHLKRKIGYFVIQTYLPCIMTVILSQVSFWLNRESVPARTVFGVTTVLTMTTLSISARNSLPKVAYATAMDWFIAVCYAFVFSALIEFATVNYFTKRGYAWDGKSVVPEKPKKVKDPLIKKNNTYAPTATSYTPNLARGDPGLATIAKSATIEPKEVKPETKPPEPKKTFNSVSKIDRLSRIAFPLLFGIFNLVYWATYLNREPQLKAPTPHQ

What is called AC50 is the midpoint of the concentration-response curve, whichever way the signal moves. Regarding `O=C(O)CCCN1CCC(O[C@@H](c2ccc(Cl)cc2)c2ccccn2)CC1` [BEPOTASTINE], the concentration at half-maximal activity (AC50) in experiment [1] and in experiment [2] was > 30 µM each time.
Consider `NS(=O)(=O)c1cc2c(cc1Cl)NC(CC1CCCC1)NS2(=O)=O` (stereo not given) [CYCLOPENTHIAZIDE], for which the concentration at half-maximal activity (AC50) (in experiment [3]; in experiment [4]; in experiment [2]; at Cannabinoid receptor 1; in [5]; in [6]) was > 30 µM throughout. The half-maximal activity concentration (AC50) in experiment [7] was > 30 µM.
With `CCC(Cc1c(I)cc(I)c(N)c1I)C(=O)O` (stereo not given) [IOPANOIC ACID], the AC50 in experiment [1] and in experiment [2] was > 30 µM throughout.
Consider `O=C1NCC2(CCN(CCc3ccccc3)CC2)O1` [FENSPIRIDE], for which the AC50 was > 30 µM in experiment [1] and 25.2 µM in experiment [2].
Turning to `C[C@@H]1C[C@H]2[C@@H]3C[C@H](F)C4=CC(=O)C(Cl)=C[C@]4(C)[C@@]3(F)[C@@H](O)C[C@]2(C)[C@@]1(O)C(=O)CO` [HALOMETASONE], the AC50 in experiment [1] and in [2] was > 30 µM each time.
Turning to `CCCCN(CCCC)CCCOC(=O)c1ccc(N)cc1` [BUTACAINE], the half-maximal activity concentration (AC50) in experiment [1] and in experiment [2] was > 30 µM throughout.
Turning to `CCC1C(C)=NN=C(c2ccc(OC)c(OC)c2)c2cc(OC)c(OC)cc21` (stereo not given) [TOFISOPAM], the half-maximal activity concentration (AC50) in experiment [1] and in [2] was > 30 µM each time.
Regarding `Nc1ccc(/N=N/c2ccccc2)c(N)n1` [PHENAZOPYRIDINE], the AC50 in experiment [3] is > 30 µM; in experiment [4], > 30 µM; in [2] it was > 30 µM; on Cannabinoid receptor 1 it was > 30 µM; in experiment [5], 14 µM; in [6], > 30 µM. This molecule also displayed an AC50 in experiment [7] of 22 µM.
Take `O=C(O)CCn1c2c(c3ccccc31)C[C@H](NS(=O)(=O)c1ccc(F)cc1)CC2` [RAMATROBAN]: the AC50 (in experiment [8]; on Histamine H3 receptor; at Adenosine receptor A2a; in experiment [2]; in experiment [9]; at Mu-type opioid receptor) was > 30 µM in each case. Also, the concentration at half-maximal activity (AC50) in experiment [5] is > 30 µM; at Progesterone receptor, > 30 µM; in experiment [6], > 10 µM; in [7] it was > 30 µM; in experiment [10] it was > 30 µM.
On to `CO/N=C(\C(=O)N[C@@H]1C(=O)N2C(C(=O)OCOC(=O)C(C)(C)C)=C(C)CS[C@H]12)c1csc(N)n1`, for which the AC50 (in experiment [3]; in experiment [4]; in [2]; on Cannabinoid receptor 1; in experiment [5]; in experiment [6]) was > 30 µM in each case. In [7], the AC50 is > 30 µM.
Take `COCC1=C(C(=O)OC(C)OC(=O)OC(C)C)N2C(=O)[C@@H](NC(=O)/C(=N\OC)c3csc(N)n3)[C@H]2SC1` (stereo not given in full) [CEFPODOXIME PROXETIL]: the AC50 in experiment [3] was > 30 µM; in experiment [4], > 30 µM; in experiment [2] it was > 30 µM; on Cannabinoid receptor 1 it was > 30 µM; in experiment [5], 29 µM; in experiment [6] it was > 30 µM. Also, in [7], the concentration at half-maximal activity (AC50) is > 30 µM.
Take `NS(=O)(=O)c1cc2c(cc1Cl)NC(C1CC3C=CC1C3)NS2(=O)=O` (stereo not given) [CYCLOTHIAZIDE]: the half-maximal activity concentration (AC50) in experiment [1] and in experiment [2] was > 30 µM in each case.
Take `Cc1nc(-c2ccc(OCC(C)C)c(C#N)c2)sc1C(=O)O` [FEBUXOSTAT]: the AC50 in experiment [1] and in experiment [2] was > 30 µM each time.
In the case of `CCCC[N+]1(C)[C@@H]2C[C@@H](OC(=O)[C@H](CO)c3ccccc3)C[C@H]1[C@@H]1O[C@@H]12` (stereo not given in full) [BUTYLSCOPOLAMINE], the concentration at half-maximal activity (AC50) in experiment [1] and in experiment [2] was > 30 µM each time.
Take `CN1C(=O)N(C)C2C1N(C)C(=O)N2C` (stereo not given) [MEBICAR]: the AC50 (in [3]; in experiment [4]; in experiment [2]; on Cannabinoid receptor 1; in [5]; in experiment [6]) was > 30 µM each time. For the same molecule, the concentration at half-maximal activity (AC50) in experiment [7] is > 30 µM.
`O=C(Cn1ccnc1[N+](=O)[O-])NCc1ccccc1` [BENZNIDAZOLE]: the concentration at half-maximal activity (AC50) (in experiment [3]; in experiment [8]; on Histamine H3 receptor; at Adenosine receptor A2a; in experiment [2]; on Cannabinoid receptor 1) was > 30 µM each time. The AC50 (in experiment [9]; in experiment [5]; on Progesterone receptor; in [6]; in experiment [7]; in [10]) was > 30 µM throughout.
On to `C1N2CN3CN1CN(C2)C3` [METHENAMINE], for which the AC50 in experiment [1] and in [2] was > 30 µM each time.
As to `O=C(NC1CCN(CCCCC2(C(=O)NCC(F)(F)F)c3ccccc3-c3ccccc32)CC1)c1ccccc1-c1ccc(C(F)(F)F)cc1` [LOMITAPIDE], the concentration at half-maximal activity (AC50) in [1] and in experiment [2] was > 30 µM in each case.
Regarding `Nc1ccc(C(=O)O)cc1` [AMINOBENZOIC ACID], the half-maximal activity concentration (AC50) in [1] and in experiment [2] was > 30 µM in each case.
Take `N/N=c1/cc2c(n[nH]1)CCN(C(=O)c1ccccc1)C2` [ENDRALAZINE]: the AC50 (in experiment [3]; in experiment [4]; in experiment [2]; at Cannabinoid receptor 1; in experiment [5]; in experiment [6]) was > 30 µM each time. Besides, in [7], the half-maximal activity concentration (AC50) was > 30 µM.
Consider `CCOC(=O)C(c1c(O)c2ccccc2oc1=O)c1c(O)c2ccccc2oc1=O` [ETHYL BISCOUMACETATE], for which the concentration at half-maximal activity (AC50) in experiment [1] and in experiment [2] was > 30 µM in each case.
Take `CC(=O)O[C@]1(C(C)=O)CC[C@H]2[C@@H]3C[C@H](C)C4=CC(=O)CC[C@]4(C)[C@H]3CC[C@@]21C` [MEDROXYPROGESTERONE ACETATE]: the AC50 in experiment [8] was > 30 µM; at Histamine H3 receptor, > 30 µM; at Adenosine receptor A2a it was > 30 µM; in [2], 13.4 µM; in experiment [9] it was > 30 µM.
Regarding `O=C(c1ccc(F)c(F)c1Nc1ccc(I)cc1F)N1CC(O)([C@@H]2CCCCN2)C1` [COBIMETINIB], the AC50 in experiment [1] and in experiment [2] was > 30 µM in each case.
As to `CCC1(c2cccc(O)c2)CCCCN(C)C1` (stereo not given) [MEPTAZINOL], the concentration at half-maximal activity (AC50) in [1] and in [2] was > 30 µM in each case.
